In US11701355B2, “Levosimendan for treating pulmonary hypertension with heart failure with preserved ejection fraction (PH-HFpEF)” (Tenax Therapeutics, Inc., priority 2019, dated 2023):

Experiments:
[1] = tested on: phosphodiesterase-3 (PDE3); details: in vitro; cited from earlier work
[2] = tested on: patients afflicted with pulmonary hypertension; details: chronic dosing over an 8-week period; cited from earlier work
[3] = tested on: PH-HFpEF patients; assay: HELP Study open-label lead-in phase: 24-hour levosimendan infusion, right heart catheterization at rest and 25 watt exercise; assay type: in vivo, human
From the text: Enrolled PH-HFpEF subjects receive a lead-in 24-hour levosimendan infusion to determine their hemodynamic response and eligibility for the double-blind phase of the study. A total of 36 “responders” are randomized in the double-blind, placebo-controlled phase. “Responders” are identified as those subjects with a ≥4 mmHg reduction in PCWP during bicycle exercise (25 watts) and no more than a 10% decrease in cardiac index between the baseline measurements and repeated measurements following the initial infusion.
Study drug is administered via i.v. infusion over 24 hours weekly through Week 5 via a PICC line. Infusions (Week 2-5) are done in the subject's home by a study nurse. Patients return to the study site for a visit between the Week 3 and Week 4 infusions for assessment of subject safety/response and need for dose adjustment. Each subject is to return on Week 6 for assessment of efficacy and safety on study drug. A right heart catheter will be inserted to obtain hemodynamic measurements at rest and exercise at baseline, the following day after the lead-in 24-hour infusion, and during Week 6.
During the Lead-in phase, levosimendan, supplied as a concentrated solution (2.5 mg/mL), is mixed with diluent and administered intravenously at 0.10 μg/kg/min for 24 hours +/−30 min.
Visits during the Lead-In phase of the trial require a subject to be hospitalized for the entire infusion period, which at a minimum will last 24 hours. Once the infusion is complete, hemodynamic measurements are collected to ensure subject eligibility. Visits for Week 2 through Week 6 are calculated based on the date of the Lead-in infusion.
During the Lead-in Infusion (Day 0) the following procedures are performed: Measure vital signs (BP, PR, respiratory rate, temperature), venous sheath placement for right heart catheterization (The sheath will remain following the baseline study, and the patient is hospitalized where they receive the 24-hour levosimendan infusion (preferably through the venous sheath). The sheath is then used for access for the right heart catheterization study following the 24-hour levosimendan infusion, and then removed), right heart catheterization measurements: baseline (prior to levosimendan infusion) and post 24-hour infusion to establish qualifying baseline hemodynamics at rest and exercise and to establish qualifying response to levosimendan during exercise, assess adverse events, assess concomitant medications and/or procedures, pharmacokinetic sampling (to be taken at the end of infusion: 24+/−2 hours), genotyping sampling (to be taken at the end of infusion: 24+/−2 hours). […] A PICC line is placed in patients that meet eligibility criteria and who are randomized into the Double-Blind phase of the study.

[4] = average of 30 patients, 25 watts exercise
[5] = average of 30 patients, rest legs down
[6] = first 30 randomized patients, 25 watts exercise
[7] = first 30 randomized patients, rest

C[C@@H]1CC(=O)NN=C1c1ccc(NN=C(C#N)C#N)cc1 [levosimendan, Levosimendan]
PDE3/PDE4 inhibition ratio [1]: 10,000 | efficacy [2]: failed to show efficacy | patients who exhibited a ≥4 mmHg decrease of PCWP ([3]; acute (24 hours) open-label levosimendan, n=44): 85% | Exercise CO Change Avg [3, 4]: 0.6 L/min | PCWP Exercise Change Avg [3, 4]: −7.53 mmHg | RAP (Exercise) Change Avg [3, 4]: −4.97 mmHg | mPAP Exercise Change Avg [3, 4]: −5.1 mmHg | PCWP-Rest (down) Change Avg [3, 5]: −5.800 mmHg | RAP (Rest-down) Change Avg [3, 5]: −4.83 mmHg | Rest (down) CO Change Avg [3, 5]: 0.33 L/min | mPAP Rest (down) Change Avg [3, 5]: −5.4 mmHg | increase of cardiac output during 25 watts of exercise, average [3, 6]: 0.60 L/min | reduction of mean pulmonary arterial pressure during 25 watts of exercise, average [3, 6]: 5.1 mmHg | reduction of pulmonary capillary wedge pressure during 25 watts of exercise, average [3, 6]: 7.53 mmHg | reduction of right atrial pressure during 25 watts of exercise, average [3, 6]: 4.97 mmHg | increase of cardiac output during rest, average [3, 7]: 0.33 L/min | reduction of mean pulmonary arterial pressure during rest, average [3, 7]: 5.4 mmHg | reduction of pulmonary capillary wedge pressure during rest, average [3, 7]: 5.8 mmHg | reduction of right atrial pressure during rest, average [3, 7]: 4.83 mmHg | pulmonary capillary wedge pressure during rest after levosimendan, average ([3]; first 30 randomized patients, rest, baseline 23.4): 17.6 mmHg | cardiac output during rest after levosimendan, average ([3]; first 30 randomized patients, baseline 5.1): 5.5 L/min | cardiac output during 25 watts of exercise after levosimendan, average ([3]; first 30 randomized patients, baseline 6.7): 7.4 L/min | right atrial pressure during rest after levosimendan, average ([3]; first 30 randomized patients, baseline 16.2): 11.3 mmHg
